Test results: patent US20100028259A1, “USE OF ORGANIC CATION TRANSPORTERS FOR CANCER DIAGNOSIS AND THERAPY” (The Regents of the University of California, priority 2006, published 2010)
Like-named read-outs stand apart in the source and are kept apart here.

Assays:
HEK-MOCK cells [1] = assay: MTT drug sensitivity assay in HEK-MOCK cells (control of HEK-hOCT3); format: cell-based, human; conditions: drug exposure 7 hour; Table 3
Procedure: (§1) Cytotoxicity of the platinum-based compounds was measured by MTT (thiazolyl blue tetrazolium bromide) assay. Cells were seeded in 100 μl of the culture medium without any antibiotics in 96-well plates at a predetermined cell density. For HEK 293 cells, poly-D-lysine coated plates were used. After overnight incubation, the platinum-based compounds were then added to the culture medium to give the indicated final concentrations. For the OCT inhibitor studies, the inhibitors (i.e., disopyramide or cimetidine) were added to the medium at a specified concentration immediately before the addition of the platinum-based compounds. After incubation for a specified time period, the drug-containing medium was replaced with fresh, drug-free medium and the incubation was continued for a total of 72 hours (start from the addition of platinum-based compounds). Then, the MTT assay was performed similarly as described in Alley et al., Cancer Res., 48:589-601 (1988). […] The maximal cell growth was the cell growth in the medium without any platinum-based compounds; C is the concentration of the platinum-based compound, and γ is the slope factor.
(§2) Briefly, the cells were seeded in 96-well plates at a density of 5,000 cells/well for the transfected MDCK cells or 12,000 cells/well for the transfected HEK 293 cells. The platinum-based drugs were added on the following day. After the specified time periods of drug exposure, the drug-containing medium was replaced with fresh, drug-free medium, and the incubation was continued for a total of 72 hours (start from the time when the drug was added). After incubation, the cell growth was determined by an MTT assay. Data are expressed as mean±SD from 3 to 6 independent experiments with each performed in quadruplicate. The resistance factor (RF) was defined as the ratio of the mean IC50 value in the MOCK cells to that in the OCT-transfected cells.

HEK-hOCT3 cells = assay: MTT drug sensitivity assay in HEK-hOCT3 cells; format: cell-based, human; conditions: drug exposure 7 hour
Procedure: as §1, with “After overnight incubation, the platinum-based compounds were then added to the culture medium to give the indicated final concentrations.” left out
as §2

HEK-MOCK cells [2] = assay: MTT drug sensitivity assay in HEK-MOCK cells (control of HEK-hOCT2); format: cell-based, human; conditions: drug exposure 7 hour; Table 2; read-out: IC50 HEK-MOCK
Procedure: as §1, §2

SW620 = assay: MTT drug sensitivity, colon cancer cell line SW620; format: cell-based, human
Procedure: as §1, with “After overnight incubation, the platinum-based compounds were then added to the culture medium to give the indicated final concentrations.” left out
(§3) The cell seeding density was 6,000-, 8,000-, 6,000-, 15,000-12,000- and 4,000 cells/well for HCT116, HT29, RKO, SW620, LS180, and DLD cells, respectively. When cimetidine (1.5 mM) was used, it was added to the wells immediately before the addition of the platinum-based drugs. The resistance factor (RF) was defined as the ratio of the mean IC50 value in the presence to that in the absence of cimetidine. Data are expressed as mean±SD from six measurements, and each measurement was performed in quadruplicate.

HT29 = assay: MTT drug sensitivity, colon cancer cell line HT29; format: cell-based, human
Procedure: as §1, with “After overnight incubation, the platinum-based compounds were then added to the culture medium to give the indicated final concentrations.” left out
as §3

DLD = assay: MTT drug sensitivity, colon cancer cell line DLD; format: cell-based, human
Procedure: as §1, with “After overnight incubation, the platinum-based compounds were then added to the culture medium to give the indicated final concentrations.” left out
as §3

HEK-hOCT2 cells [3] = assay: MTT drug sensitivity assay in HEK-hOCT2 cells; format: cell-based, human; conditions: drug exposure 7 hour; read-out: IC50 HEK-hOCT2
Procedure: as §1, with “After overnight incubation, the platinum-based compounds were then added to the culture medium to give the indicated final concentrations.” left out
as §2

LS180 = assay: MTT drug sensitivity, colon cancer cell line LS180; format: cell-based, human
Procedure: as §1, with “After overnight incubation, the platinum-based compounds were then added to the culture medium to give the indicated final concentrations.” left out
as §3

HCT116 = assay: MTT drug sensitivity, colon cancer cell line HCT116; format: cell-based, human
Procedure: as §1, with “After overnight incubation, the platinum-based compounds were then added to the culture medium to give the indicated final concentrations.” left out
as §3

[4] = system: six colon cancer cell lines; assay: MTT drug sensitivity, summary over the six colon cancer cell lines; format: cell-based, human
Procedure: as §1, with “After overnight incubation, the platinum-based compounds were then added to the culture medium to give the indicated final concentrations.” left out
The resistance factor (RF) due to the presence of cimetidine was defined as the ratio of the IC50 value in the presence of cimetidine to that in the absence of cimetidine.
as §3

MDCK-hOCT1 cells [5] = assay: MTT drug sensitivity assay in MDCK-hOCT1 cells; format: cell-based, canine; conditions: read-out: IC50 MDCK-hOCT1
Procedure: as §1, with “After overnight incubation, the platinum-based compounds were then added to the culture medium to give the indicated final concentrations.” left out
as §2
(§4) Briefly, MDCK cells were seeded at a density of 5,000 cells/well in 96-well plates and exposed to the test compounds for 7 hours on the following day. After incubation for a total of 72 hours, the cell growth was determined by an MTT assay. The data for carboplatin was taken from Table 1 and was not determined simultaneously with the other compounds. The resistance factor (RF) was defined as the ratio of the mean IC50 value in MDCK-MOCK cells to that in MDCK-hOCT1 cells. Data are expressed as mean±SD from six measurements, and each measurement was performed in quadruplicate.

MDCK-MOCK cells [6] = assay: MTT drug sensitivity assay in MDCK-MOCK cells; format: cell-based, canine; conditions: read-out: IC50 MDCK-MOCK
Procedure: as §1, §2, §4

RKO = assay: MTT drug sensitivity, colon cancer cell line RKO; format: cell-based, human
Procedure: as §1, with “After overnight incubation, the platinum-based compounds were then added to the culture medium to give the indicated final concentrations.” left out
as §3

MDCK-MOCK cells [7] = assay: Cellular accumulation of platinum in MDCK-MOCK cells (ICP-MS); format: in vitro ADME, canine; conditions: 2-hr exposure, drug 15 μM
Procedure: (§5) For the inhibitor studies, the incubation medium also contained disopyramide (150 μM). […] For the inhibitor studies, the incubation medium also contained cimetidine (1.5 mM). […] After drug exposure, the cells were washed with ice-cold PBS three times and harvested by scraping and centrifugation. The cell-associated platinum was determined by ICP-MS and normalized for protein content. Data are expressed as mean±SD from a single experiment performed in triplicate. Experiments were replicated for OCT1 and OCT2, and similar results were obtained.
(§6) The cellular accumulation of platinum was determined as described in Holzer et al., Mol. Pharmacol., 66:817-823 (2004) with some modifications. Briefly, the cells were grown in 100 mm×20 mm dishes in the culture medium without any antibiotics to over 90% confluence. For HEK 293 cells, poly-D-lysine coated dishes were used. For platinum accumulation, the cells were incubated in the culture medium containing the indicated concentrations of the platinum compounds at 37° C. in 5% CO2 for 2 hr unless specified. After incubation, the dishes were immediately placed on ice and the cells were washed with 6 ml of ice-cold PBS for three times and collected with a rubber policeman. The cell pellets were obtained by centrifugation at 400×g and at 4° C. for 15 min. For the OCT inhibitor studies, the incubation medium also contained the indicated inhibitor (i.e., disopyramide or cimetidine) in addition to the platinum-based compounds. The resulting cell pellets were then dissolved into 200 μl of 70% nitric acid at 65° C. for at least 2.5 hours, and then distilled water containing 10 ppb of iridium (Sigma) and 0.1% Triton X-100 was added to the samples to dilute nitric acid to 7%. The platinum content was measured by inductively plasma coupled mass spectrometry (ICP-MS) in the Analytical Facility at the University of California at Santa Cruz (Santa Cruz, Calif.). Cell lysates from a set of identical cultures were used for BCA protein assay.

HEK-hOCT2 cells [8] = assay: Cellular accumulation of platinum in HEK-hOCT2 cells (ICP-MS); format: in vitro ADME, human; conditions: 2-hr exposure
Procedure: as §5, §6

MDCK-hOCT1 cells [9] = assay: Cellular accumulation of platinum in MDCK-hOCT1 cells (ICP-MS); format: in vitro ADME, canine; conditions: 2-hr exposure
Procedure: as §5, §6

HEK-MOCK cells [10] = assay: Cellular accumulation of platinum in HEK-MOCK cells (ICP-MS); format: in vitro ADME, human; conditions: cimetidine 1.5 mM
Procedure: as §5
The cellular accumulation of platinum was determined as described in Holzer et al., Mol. Pharmacol., 66:817-823 (2004) with some modifications. Briefly, the cells were grown in 100 mm×20 mm dishes in the culture medium without any antibiotics to over 90% confluence. For HEK 293 cells, poly-D-lysine coated dishes were used. For platinum accumulation, the cells were incubated in the culture medium containing the indicated concentrations of the platinum compounds at 37° C. in 5% CO2 for 2 hr unless specified. […] The platinum content was measured by inductively plasma coupled mass spectrometry (ICP-MS) in the Analytical Facility at the University of California at Santa Cruz (Santa Cruz, Calif.). […]

[11] = absence of cimetidine, read-out: IC50 Control
[12] = cimetidine 1.5 mM, read-out: IC50 Cimetidine-treated
[13] = SAR study Table 4, 7 hours of drug exposure
[14] = drug exposure 7 hour, MTT at 72 hours, Table 1

Molecule: N.N.[Cl][Pt][Cl] [cisplatin]
- IC50 (HEK-MOCK cells [1]): 2.83 ± 0.9 µM
- IC50 (HEK-hOCT3 cells): 2.44 ± 0.71 µM
- IC50 (HEK-MOCK cells [2]): 2.95 ± 0.23 µM
- IC50 (SW620; SW620, absence of cimetidine, read-out: IC50 Control): 12.6 ± 1.95 µM
- IC50 (SW620; SW620, cimetidine 1.5 mM, read-out: IC50 Cimetidine-treated): 22.2 ± 4.92 µM
- IC50 (HT29; HT29, absence of cimetidine, read-out: IC50 Control): 12.4 ± 3.91 µM
- IC50 (HT29; HT29, cimetidine 1.5 mM, read-out: IC50 Cimetidine-treated): 30.8 ± 11 µM
- IC50 (DLD; [11]): 18.4 ± 7.58 µM
- IC50 (DLD; [12]): 32.3 ± 10.3 µM
- IC50 (HEK-hOCT2 cells [3]): 1.32 ± 0.18 µM
- IC50 (LS180; LS180, absence of cimetidine, read-out: IC50 Control): 5.72 ± 1.75 µM
- IC50 (LS180; LS180, cimetidine 1.5 mM, read-out: IC50 Cimetidine-treated): 8.27 ± 3.35 µM
- IC50 (HCT116; HCT116, absence of cimetidine, read-out: IC50 Control): 5.42 ± 1.34 µM
- IC50 (HCT116; HCT116, cimetidine 1.5 mM, read-out: IC50 Cimetidine-treated): 10.2 ± 3.23 µM
- IC50 ([4]; absence of cimetidine, read-out: mean±SE of IC50 in the six cell lines, control): 10.5 ± 2.02 µM
- IC50 ([4]; cimetidine 1.5 mM, read-out: mean±SE of IC50 in the six cell lines, in the presence of cimetidine): 19.4 ± 4.32 µM
- IC50 (MDCK-hOCT1 cells [5]; [13]): 3.58 ± 0.3 µM
- IC50 (MDCK-hOCT1 cells [5]; [14]): 15.4 ± 2.84 µM
- IC50 (MDCK-MOCK cells [6]; [13]): 6.32 ± 0.74 µM
- IC50 (MDCK-MOCK cells [6]; [14]): 19.6 ± 7.56 µM
- IC50 (RKO; [11]): 8.58 ± 2.38 µM
- IC50 (RKO; [12]): 12.5 ± 4.44 µM

Molecule: [Pt(NH3)2(trans-1,2-(OCO)2C6H10)] [[Pt(NH3)2(trans-1,2-(OCO)2C6H10]]
- IC50 (MDCK-hOCT1 cells [5]; [13]): 10.8 ± 2.66 µM
- IC50 (MDCK-MOCK cells [6]; [13]): 21.4 ± 2.94 µM

Molecule: O=C1[O][Pt]2([NH]C3CCCCC3[NH]2)[O]C1=O [[Pt(S,S-DACH)oxalato]]
- IC50 (MDCK-hOCT1 cells [5]; [13]): 1.45 ± 1.16 µM
- IC50 (MDCK-MOCK cells [6]; [13]): 30 ± 14.2 µM

Molecule: N.N.O=C([O-])C1(C(=O)[O-])CCC1.[Pt+2] [carboplatin]
- IC50 (HEK-MOCK cells [1]): 84.8 ± 9.71 µM
- IC50 (HEK-hOCT3 cells): 48.1 ± 23.4 µM
- IC50 (HEK-MOCK cells [2]): 110 ± 46.3 µM
- cellular platinum accumulation rate in MDCK-MOCK (MDCK-MOCK cells [7]): 2.22±0.07 pmol/mg protein-hr
- IC50 (HEK-hOCT2 cells [3]): 61.6 ± 46.3 µM
- IC50 (MDCK-hOCT1 cells [5]; [13]): 227 ± 85.8 µM
- IC50 (MDCK-hOCT1 cells [5]; [14]): 227 ± 85.8 µM
- fold higher platinum accumulation rate, HEK-hOCT2 vs HEK-MOCK (HEK-hOCT2 cells [8]): 1.38 fold
- cellular platinum accumulation rate in HEK-hOCT2 (HEK-hOCT2 cells [8]; drug 10 μM): 4.17±0.18 pmol/mg protein-hr
- cellular platinum accumulation rate in MDCK-hOCT1 (MDCK-hOCT1 cells [9]; drug 15 μM): 2.77±0.36 pmol/mg protein-hr
- effect of disopyramide on platinum accumulation rate in MDCK-hOCT1 (MDCK-hOCT1 cells [9]; disopyramide 150 μM): not inhibited by disopyramide
- IC50 (MDCK-MOCK cells [6]; [13]): 258 ± 86.3 µM
- IC50 (MDCK-MOCK cells [6]; [14]): 258 ± 86.3 µM
- effect of cimetidine on platinum accumulation / cellular uptake in HEK-MOCK (HEK-MOCK cells [10]): little effect

Molecule: [Cl][Pt]1([Cl])[NH]C2CCCCC2[NH]1 [[Pt(R,R-DACH)Cl2]]
- IC50 (MDCK-hOCT1 cells [5]; [13]): 0.65 ± 0.26 µM
- IC50 (MDCK-MOCK cells [6]; [13]): 15 ± 3.24 µM

Molecule: [Cl][Pt]1([Cl])[NH]C2CCCCC2[NH]1 [[Pt(S,S-DACH)Cl2]]
- IC50 (MDCK-hOCT1 cells [5]; [13]): 0.57 ± 0.18 µM
- IC50 (MDCK-MOCK cells [6]; [13]): 16.2 ± 3.72 µM

Molecule: NCCN.[Cl][Pt][Cl] [[Pt(Cl2)(en)]]
- IC50 (MDCK-hOCT1 cells [5]; [13]): 10.2 ± 4.76 µM
- IC50 (MDCK-MOCK cells [6]; [13]): 33.2 ± 11.5 µM

Molecule: N.NC1CCCCC1.[Cl][Pt][Cl] [cis-[Pt(NH3)(Cy)Cl2]]
- IC50 (MDCK-hOCT1 cells [5]; [13]): 0.16 ± 0.03 µM
- IC50 (MDCK-MOCK cells [6]; [13]): 1.42 ± 0.15 µM
